Data set [1] can be described thus: refractive index (Na D-line) (dimensionless). As to conditions: 298.15 K; 101.33 kPa; Liquid; Standard Abbe refractometry.
The conditions of data set [2]: 298.15 K; 101.33 kPa; Liquid; Vibrating tube method.

The record followed here is the NIST ThermoML archive (doi:10.1016/j.fluid.2007.08.008).

± gives the expanded uncertainty stated by the source.

`OCCO` [1,2-ethanediol]: the refractive index (usually the speed of light in vacuum divided by its phase velocity in the sample) in data set [1] stood at 1.4306 ± 0.004.
Turning to `CCCOCCC` [dipropyl ether], in data set [1], the refractive index came out at 1.3784 ± 0.0045. Besides, the mass density (commonly the mass of a sample divided by its volume) in data set [2] was 741.81 ± 13 kg/m3.
In the same order, the values of `CCCO` [propan-1-ol] are 1.3836 ± 0.004 and 799.62 ± 0.14 kg/m3.
In the case of `O` [water], the refractive index in data set [1] is 1.3325 ± 0.004.
